Laboratory results from US20260102503A1, “NANOCOMPOSITES FOR ENHANCED CELLULAR PAYLOAD DELIVERY” (priority 2022, published 2026).
Values after ≈ are worked out from the molar mass of the structure shown.

Legend:
Type in all cases: cell-based
MRSA = assay: microbe, parasite or virus in culture; conditions: Staphylococcus aureus, 24 h
AT1 cells = assay: Nanocomposite cellular uptake mechanism study (endocytosis inhibitors, temperature block); conditions: 5 μM, 2 hours pretreatment, vs untreated cells
Experimental: To determine the NC/NP uptake mechanism used by cells, an endocytosis-inhibition examination was performed. Alveolar Type 1 cells were seeded at confluency in 48-well plates and attached overnight at 37° C. in an incubator with 5% CO2. Rhodamine B-loaded nanocomposites were prepared using a similar procedure done for other studies. After 24 hours of seeding, the AT1 cell culture medium was replaced by fresh 1% serum media containing 5 μM of Amiloride, 5 μM of methyl-β-cyclodextran, 5 μg/mL of Filipin III, 5 μM of Cytochalasin-D, 5 μM of Imipramine, 80 μM Dynasore, or 5 mM of Deoxy-glucose (Sigma Aldrich & Cayman Chemical). After 2 hours, fresh complete media with Rho B-labeled nanocomposites at a concentration of 0.5 mg/mL was added. […] Images were acquired using a fluorescent microscope and processed for NP uptake in random areas using 10 images from each inhibitor group with the ImageJ software.
In a similar fashion, to check if the nanocomposites undergo an energy-dependent uptake, temperature block was studied in AT1 cells by preincubating cells at 4° C. for 30 minutes, followed by treatment with fluorescent nanocomposites for 90 minutes at 4° C. Later, fluorescent images were acquired, and the cell lysates were analyzed for quantitative nanocomposite uptake.

[1] = tested on: primary alveolar type I epithelial cells (AT1); assay: Cytocompatibility (MTS) in AT1 cells; conditions: 72 hours, 0.0625-1 mg/mL, vs untreated control
Experimental: Primary lung epithelial cells, RAW macrophages, and HUVECs were used to assess toxicity of the nanocomposites. Nanocomposites were prepared as described in for AT1 cells, in which 20,000 cells/well of primary alveolar type I epithelial cells (AT1) were seeded in 48-well plates. After the overnight culture, various groups of particles including blank PLGA NPs, nanofibers only, and nanocomposites (nanofiber coated-PLGA nanoparticles) were given to the cells in triplicate at various concentrations ranging from 0.0625-1 mg/mL. The nanofiber concentration chosen was equivalent to the peptide amount conjugated onto the nanoparticles. After 72 hours, the cells were washed 3 times with PBS, and MTS reagent was applied to the cells to assess the cell viability following the company's instructions.
In this study, primary lung epithelial cells and kidney epithelial cells (Vero E6) were used to assess toxicity from NPs. NF-coated NPs were prepared as described above, in which 4000 cells/well of primary alveolar type I epithelial cells (AT1 cells) and Vero E6 cells were seeded in 96-well plates. After overnight culturing, RDV NCs were added to the cells in triplicate at various concentrations ranging from 0 to 1 mg/mL. An NF to NP ratio of 0.25 was used for the study. […]

CN[C@H](CC(C)C)C(=O)N[C@H]1C(=O)N[C@@H](CC(N)=O)C(=O)N[C@H]2C(=O)N[C@H]3C(=O)N[C@H](C(=O)N[C@H](C(=O)O)c4cc(O)cc(O)c4-c4cc3ccc4O)[C@H](O)c3ccc(c(Cl)c3)Oc3cc2cc(c3O[C@@H]2O[C@H](CO)[C@@H](O)[C@H](O)[C@H]2O[C@H]2C[C@](C)(N)[C@H](O)[C@H](C)O2)Oc2ccc(cc2Cl)[C@H]1O [free vancomycin, vancomycin]
MIC (MRSA): 2 µg/mL (≈ 1.38 µM)

C=C1[C@@H](C)[C@H]2[C@H](Cc3ccccc3)NC(=O)[C@]23[C@H](OC(C)=O)/C=C/[C@@](C)(O)C(=O)[C@@H](C)C/C=C/[C@H]3[C@@H]1O [cytochalasin-D]
effect of endocytosis inhibitor on cellular uptake of NCs (AT1 cells): significant reduction in cellular uptake

Ac-KKKKKKKKKKQWQWQWQWQWQWEEE-NH2 [NFs, K10(QW)6E3]
cytocompatibility (cell viability, MTS) [1]: significant toxicity with concentrations ranging from 0.25-1 mg/mL
